Measured values as given in article PMC8416862 (Clinical Pharmacokinetics, 2021).
Blank lines part the entries; values can stand above or below the compound they belong to.

Key:
[1] = co-administered with once-weekly subcutaneous semaglutide; cited from earlier work
[2] = Trial 2: plasma pharmacokinetics of single-dose furosemide and rosuvastatin; format: in vivo, healthy male and female subjects; settings: single dose co-administered with oral semaglutide versus alone
[3] = cited from earlier work
drug transporters = settings: in vitro studies; cited from earlier work
CYP enzymes = settings: in vitro studies; cited from earlier work

Compound: C#C[C@]1(O)CC[C@H]2[C@@H]3CCC4=CC(=O)CC[C@@H]4[C@H]3CC[C@@]21CC [levonorgestrel]
increase in AUC [1]: 20%

decrease in the maximum concentration [2]: 34%
Compound: NS(=O)(=O)c1cc(C(=O)O)c(NCc2ccco2)cc1Cl [Furosemide, furosemide]

increase in maximum concentration [2]: 10%
increase in total exposure [2]: 41%
Compound: CC(C)c1nc(N(C)S(C)(=O)=O)nc(-c2ccc(F)cc2)c1/C=C/[C@@H](O)C[C@@H](O)CC(=O)O [Rosuvastatin, rosuvastatin]
bioavailability, orally administered ([3]; oral administration): approximately 20%

Compound: CC[C@H](C)[C@H](NC(=O)[C@H](Cc1ccccc1)NC(=O)[C@H](CCC(=O)O)NC(=O)[C@H](CCCCNC(=O)COCCOCCNC(=O)COCCOCCNC(=O)CC[C@H](NC(=O)CCCCCCCCCCCCCCCCC(=O)O)C(=O)O)NC(=O)[C@H](C)NC(=O)[C@H](C)NC(=O)[C@H](CCC(N)=O)NC(=O)CNC(=O)[C@H](CCC(=O)O)NC(=O)[C@H](CC(C)C)NC(=O)[C@H](Cc1ccc(O)cc1)NC(=O)[C@H](CO)NC(=O)[C@H](CO)NC(=O)[C@@H](NC(=O)[C@H](CC(=O)O)NC(=O)[C@H](CO)NC(=O)[C@@H](NC(=O)[C@H](Cc1ccccc1)NC(=O)[C@@H](NC(=O)CNC(=O)[C@H](CCC(=O)O)NC(=O)C(C)(C)NC(=O)[C@@H](N)Cc1cnc[nH]1)[C@@H](C)O)[C@@H](C)O)C(C)C)C(=O)N[C@@H](C)C(=O)N[C@@H](Cc1c[nH]c2ccccc12)C(=O)N[C@@H](CC(C)C)C(=O)N[C@H](C(=O)N[C@@H](CCCNC(=N)N)C(=O)NCC(=O)N[C@@H](CCCNC(=N)N)C(=O)NCC(=O)O)C(C)C [Semaglutide, semaglutide]
elimination of intact semaglutide in urine ([3]; absorption, metabolism and excretion trial with subcutaneous semaglutide): 3%
potential to inhibit drug transporters (drug transporters): very low potential
potential to inhibit or induce CYP enzymes (CYP enzymes): very low potential
